This is an account of results in patent US5384412A, “Saccharide intermediates in the formation of the calicheamicin and esperamicin oligosaccharides” (priority 1992, dated 1995).

Where two headings read alike, the source gives them in different places.

Experiment [1] relates to 93 base-pair Sal I - Sph I double-stranded DNA fragment of pBR322. The experiment is described as follows: DNase I footprinting of oligosaccharides on labeled DNA fragment. It is filed as binding. Conditions: for protection against DNase I cleavage (footprinting): pre-incubated with DNA at 37° C. for 30 minutes, autoradiography; for DNA binding selectivity from footprinting: footprinting studies, O-methyl glycoside. An excerpt: Footprinting studies the O-methyl glycosides of saccharide Compounds 167a, 100, its C-4 epimer (100a) and a similar compound lacking the iodo group in Ring C, 100b, shown below, were designed to probe these questions.
The oligosaccharides 167a, 100, 100a, and 100b were obtained by chemical synthesis following procedures similar to those discussed before. The 93 base-pair Sal I - Sph I double-stranded DNA fragment of pBR322 was obtained enzymatically and was [5'-^32 P]-labeled on one strand. pBR322 DNA was cleaved at the unique Sal I site, dephosphorylated using calf intestine phosphatase, 5'-^32 P]-phosphorylated using T4 polynucleotide kinase and [g-^32 P ATP (4.5 ^m Ci/pmol), and cleaved again at the unique Sph I site. These precursors generated a 93 base-pair double-stranded fragment, [5'-^32 P]-labeled at the Sal I end, which was purified by gel electrophoresis in a nondenaturing 10 percent polyacrylamide gel and subsequent column chromatography on Sephadex G-25. The oligosaccharides were pre-incubated with the DNA fragment at 37° C. for 30 minutes and DNase I was added to cleave the DNA and generate footprinting patterns by autoradiography.
The degree of protection against DNase I digestion offered by both the natural and unnatural stereoisomers was determined by comparing the amount of radioactivity in adjacent lanes along the electrophoresis gel. The protected regions coincided only roughly with calicheamicin γ1^I recognition sequences [(a) Zein et al., Science, 240:1198 (1988); (b) Zein et al., Science, 244:697 (1989); (c) Ding et al., J. Am. Chem. Soc., 113:6617 (1991)], Schreiber [Hawley et al., Proc. Natl. Acad. Sci. U.S.A., 86:1105 (1989)] and observed calicheamicin γ1^I cleavage sites.

A further experiment deals with duplex DNA. Conditions: cited from earlier work.
Another experiment deals with DNA. Conditions: Zein et al., Science, 244:697 (1989), cited from earlier work.

`CCN[C@H]1CO[C@@H](O[C@H]2[C@H](OC)O[C@H](C)[C@H](NO[C@H]3C[C@H](O)[C@H](SC(=O)c4c(C)c(I)c(O[C@@H]5O[C@@H](C)[C@H](O)[C@@H](OC)[C@H]5O)c(OC)c4OC)[C@@H](C)O3)[C@@H]2O)C[C@@H]1OC` [Compound 100a]: in experiment [1], the “protection against DNase I cleavage (footprinting)” value (from here on “protection against DNase I cleavage”) is given as “no protection at the same concentrations”.

As for `CCN[C@H]1CO[C@@H](O[C@H]2[C@H](OC)O[C@H](C)[C@@H](NO[C@H]3C[C@H](O)[C@H](SC(=O)c4c(C)cc(O[C@@H]5O[C@@H](C)[C@H](O)[C@@H](OC)[C@H]5O)c(OC)c4OC)[C@@H](C)O3)[C@@H]2O)C[C@@H]1OC` [Compound 100b], the “protection against DNase I cleavage” value in experiment [1] is reported as “lack of protection under the same conditions”.

On to `CCN[C@H]1CO[C@@H](O[C@H]2[C@H](O[C@H]3C#CC=CC#C[C@@]4(O)CC(=O)C(NC(=O)OC)=C3/C4=C\CSSSC)O[C@H](C)[C@@H](NO[C@H]3C[C@H](O)[C@H](SC(=O)c4c(C)c(I)c(O[C@@H]5O[C@@H](C)[C@H](O)[C@@H](OC)[C@H]5O)c(OC)c4OC)[C@@H](C)O3)[C@@H]2O)C[C@@H]1OC` (stereo in doubt) [calicheamicin γ1^I, reference compound], for which the DNA binding site entry with duplex DNA (double stranded DNA minor groove) is given as “anchors itself on the 5' side of a TCCT sequence”. Also, the “sequence specificity of DNA cleaving” value in the experiment with DNA is on record as “double DNA strand cuts at specific sequences”.

For the compound `CCN[C@H]1CO[C@@H](O[C@H]2[C@H](OC)O[C@H](C)[C@@H](NO[C@H]3C[C@H](O)[C@H](SC(=O)c4c(C)c(I)c(O[C@@H]5O[C@@H](C)[C@H](O)[C@@H](OC)[C@H]5O)c(OC)c4OC)[C@@H](C)O3)[C@@H]2O)C[C@@H]1OC` [Compound 100], the “interaction with duplex DNA” value in the experiment on duplex DNA (previous studies by the Ellestad, Schreiber, Kahne and Danishefsky groups) is listed as “selective interactions of the calicheamicin γ1^I oligosaccharide with duplex DNA along specific sequences within the minor groove”. Moreover, in experiment [1], the “DNA binding selectivity from footprinting” value is “selective binding of oligosaccharide Compound 100 with specific base sequences of DNA”; the “protection against DNase I cleavage” value is “concentration-dependent protection, presumably due to binding, in the region of three calicheamicin γ1^I binding sites: CTCT, TCCT and AGGA”. For the same compound, the “DNA binding selectivity from footprinting” value in experiment [1] (listed as calicheamicin oligosaccharide glycoside) was “binds specifically to DNA, the preferred saccharide binding sites do not coincide precisely with those observed for intact calicheamicin”.

esperamicin: the “sequence specificity of DNA cleaving” value in the experiment on DNA is recorded as “no strong sequence specificity in DNA cleaving”; in the experiment with DNA (listed as Esperamicins) it was “less sequence specific”.
